The values below come from US20260083721A1, “7-CYANO-8-HYDROXYQUINOLINE DERIVATIVE, PREPARATION METHOD THEREFOR AND MEDICAL USE THEREOF” (Jiangsu Yahong Meditech Co., Ltd., priority 2022, published 2026).

Holding throughout (type): cell-based
Assay [1] concerns carbapenem-resistant Acinetobacter baumannii 18-W13-081. The experiment in a line: MIC by broth microdilution, carbapenem-resistant A. baumannii 18-W13-081. The note with it: carbapenem-resistant clinical isolate, CAMHB, 35±2° C., 20 hours, drug concentration range 128 mg/L to 0.06 mg/L, read-out: inhibitory MIC value, Acinetobacter baumannii 18-W13-081. The source says:
(§1) The test bacteria were 2 strains of carbapenem-resistant Escherichia coli (18-W09-093 and 18-W18-070), 2 strains of carbapenem-resistant Acinetobacter baumannii (18-W15-036 and 18-W13-081), 1 strain of methicillin-resistant Staphylococcus aureus (19-W03-012) and 1 strain of methicillin-sensitive Staphylococcus aureus (19-W01-012), isolated clinically, with duplicate strains isolated from the same patient being excluded. Besides, there were 3 quality control strains, namely Escherichia co/i ATCC 25922, Acinetobacter baumannii ATCC 19606, and Staphylococcus aureus ATCC 29213. The above strains were all provided by Shanghai GenoMatrix Medical Laboratory Co., Ltd.
(§2) The MIC of the compound of the present invention on clinically isolated strains was assayed by the broth microdilution method according to the relevant documents from the Clinical and Laboratory Standards Institute (CLSI) of United States. • 3.1 Preparation of antimicrobial drugs: the compounds of the present invention were all dissolved with DMSO. The drug concentration ranged from 128 mg/L to 0.06 mg/L. • 3.2 Culture medium: cation adjusted Mueller-Hinton broth (CAMHB) was used. • 3.3 Inoculation amount of bacteria: the isolated pure culture of test bacteria cultured overnight was adjusted to 0.5 McFarland turbidity by direct colony suspension and diluted 100 folds, and the final inoculation amount was 10^5 CFU/mL. • 3.4 Culture conditions: the bacteria were cultured in air at 35±2° C. for 20 hours.
(§3) The results of the drug sensitivity test were interpretated according to the standards of CLSI M100-ED29:2019.
(§4) The statistical analysis of the results of the drug sensitivity test was done by using WHONET version 5.6 software.
(In broth dilution the organism is exposed to a series of concentrations in liquid medium.)

The test system of assay [2] is methicillin-sensitive Staphylococcus aureus 19-W01-012. The assay can be described thus: MIC by broth microdilution, methicillin-sensitive S. aureus 19-W01-012. The note with it: methicillin-sensitive clinical isolate, CAMHB, 35±2° C., 20 hours, drug concentration range 128 mg/L to 0.06 mg/L, read-out: inhibitory MIC value, Staphylococcus aureus 19-W01-012.
From the text: as §1, §2, §3, §4

The subject of assay [3] is carbapenem-resistant Escherichia coli 18-W18-070. The assay can be described thus: MIC by broth microdilution, carbapenem-resistant E. coli 18-W18-070. The note with it: carbapenem-resistant clinical isolate, CAMHB, 35±2° C., 20 hours, drug concentration range 128 mg/L to 0.06 mg/L, read-out: inhibitory MIC value, Escherichia coli 18-W18-070.
From the text: as §1, §2, §3, §4

Assay [4] concerns carbapenem-resistant Escherichia coli 18-W09-093. The experiment in a line: MIC by broth microdilution, carbapenem-resistant E. coli 18-W09-093. The note with it: carbapenem-resistant clinical isolate, CAMHB, 35±2° C., 20 hours, drug concentration range 128 mg/L to 0.06 mg/L, read-out: inhibitory MIC value, Escherichia coli 18-W09-093.
From the text: as §1, §2, §3, §4

Assay [5] deals with Acinetobacter baumannii ATCC19606. The assay can be described thus: MIC by broth microdilution, A. baumannii ATCC 19606. The note with it: quality control strain, CAMHB, 35±2° C., 20 hours, drug concentration range 128 mg/L to 0.06 mg/L, read-out: inhibitory MIC value, Acinetobacter baumannii ATCC19606.
From the text: as §1, §2, §3, §4

Assay [6] concerns Staphylococcus aureus ATCC29213. The experiment in a line: MIC by broth microdilution, S. aureus ATCC 29213. The note with it: quality control strain, CAMHB, 35±2° C., 20 hours, drug concentration range 128 mg/L to 0.06 mg/L, read-out: inhibitory MIC value, Staphylococcus aureus ATCC29213.
From the text: as §1, §2, §3, §4

Assay [7] has as its system Escherichia coli ATCC25922. The experiment in a line: MIC by broth microdilution, E. coli ATCC 25922. The note with it: quality control strain, CAMHB, 35±2° C., 20 hours, drug concentration range 128 mg/L to 0.06 mg/L, read-out: inhibitory MIC value, Escherichia coli ATCC25922.
From the text: as §1, §2, §3, §4

In assay [8] the test system is methicillin-resistant Staphylococcus aureus 19-W03-012. The experiment in a line: MIC by broth microdilution, methicillin-resistant S. aureus 19-W03-012. The note with it: methicillin-resistant clinical isolate, CAMHB, 35±2° C., 20 hours, drug concentration range 128 mg/L to 0.06 mg/L, read-out: inhibitory MIC value, Staphylococcus aureus 19-W03-012.
From the text: as §1, §2, §3, §4

The subject of assay [9] is carbapenem-resistant Acinetobacter baumannii 18-W15-036. The assay can be described thus: MIC by broth microdilution, carbapenem-resistant A. baumannii 18-W15-036. The note with it: carbapenem-resistant clinical isolate, CAMHB, 35±2° C., 20 hours, drug concentration range 128 mg/L to 0.06 mg/L, read-out: inhibitory MIC value, Acinetobacter baumannii 18-W15-036.
From the text: as §1, §2, §3, §4

In brackets after ≈: the same amount, converted by molar mass.

On to `N#Cc1cc(Br)c2cccnc2c1O` [Compound 1, 5-bromo-7-cyano-8-hydroxyquinoline], for which the MIC (commonly the lowest concentration found to suppress growth) in assay [1] came out at 4 µg/mL (≈ 16.1 µM); in [2], 4 µg/mL (≈ 16.1 µM); in [3], 32 µg/mL (≈ 128 µM); in assay [4], 32 µg/mL (≈ 128 µM); in assay [5] it was 4 µg/mL (≈ 16.1 µM); in [6] it was 4 µg/mL (≈ 16.1 µM). For the same compound, the MIC in assay [7] is 8 µg/mL (≈ 32.1 µM); in assay [8] it was 4 µg/mL (≈ 16.1 µM); in [9], 16 µg/mL (≈ 64.2 µM).
Take `Cc1ccnc2c(O)c(C#N)cc(Br)c12` [Compound 6, 4-methyl-5-bromo-7-cyano-8-hydroxyquinoline]: the MIC in assay [1] came out at 4 µg/mL (≈ 15.2 µM); in assay [2] it was 4 µg/mL (≈ 15.2 µM); in [3], 32 µg/mL (≈ 122 µM); in [4], 32 µg/mL (≈ 122 µM); in assay [5], 4 µg/mL (≈ 15.2 µM); in [6] it was 4 µg/mL (≈ 15.2 µM). In addition, the MIC in [7] was determined as 8 µg/mL (≈ 30.4 µM); in assay [8], 2 µg/mL (≈ 7.6 µM); in assay [9] it was 32 µg/mL (≈ 122 µM).
As to `N#Cc1ccc2ccc(F)nc2c1O` [Compound 4, 2-fluoro-7-cyano-8-hydroxyquinoline], the MIC in assay [1] was determined as 8 µg/mL (≈ 42.5 µM); in [2], 16 µg/mL (≈ 85 µM); in assay [3], 16 µg/mL (≈ 85 µM); in [4], 16 µg/mL (≈ 85 µM); in assay [5], 4 µg/mL (≈ 21.3 µM); in assay [6] it was 16 µg/mL (≈ 85 µM). For the same compound, the MIC was 8 µg/mL (≈ 42.5 µM) in assay [7], 16 µg/mL (≈ 85 µM) in assay [8] and 8 µg/mL (≈ 42.5 µM) in [9].
On to `N#Cc1cc(C(F)(F)F)c2cccnc2c1O` [Compound 2, 5-trifluoromethyl-7-cyano-8-hydroxyquinoline], for which the MIC came out at 32 µg/mL (≈ 134 µM) in [1]; 4 µg/mL (≈ 16.8 µM) in assay [2]; 64 µg/mL (≈ 269 µM) in [3]; 64 µg/mL (≈ 269 µM) in assay [4]; 16 µg/mL (≈ 67.2 µM) in [5]; 8 µg/mL (≈ 33.6 µM) in [6]. The MIC was 32 µg/mL (≈ 134 µM) in assay [7], 4 µg/mL (≈ 16.8 µM) in [8] and 64 µg/mL (≈ 269 µM) in assay [9].
For `Cc1ccnc2c(O)c(C#N)cc(Cl)c12` [Compound 5, 4-methyl-5-chloro-7-cyano-8-hydroxyquinoline], the MIC came out at 2 µg/mL (≈ 9.15 µM) in assay [1]; 4 µg/mL (≈ 18.3 µM) in [2]; 16 µg/mL (≈ 73.2 µM) in assay [3]; 32 µg/mL (≈ 146 µM) in assay [4]; 4 µg/mL (≈ 18.3 µM) in assay [5]; 4 µg/mL (≈ 18.3 µM) in assay [6]. Moreover, the MIC in assay [7] amounted to 8 µg/mL (≈ 36.6 µM); in [8] it was 2 µg/mL (≈ 9.15 µM); in assay [9], 8 µg/mL (≈ 36.6 µM).
On to `N#Cc1cc(Cl)c2cccnc2c1O` [Compound 9, 5-chloro-7-cyano-8-hydroxyquinoline], for which the MIC in assay [1] was 8 µg/mL (≈ 39.1 µM); in assay [2], 8 µg/mL (≈ 39.1 µM); in assay [3], 32 µg/mL (≈ 156 µM); in assay [4], 32 µg/mL (≈ 156 µM); in [5] it was 4 µg/mL (≈ 19.5 µM); in assay [6] it was 8 µg/mL (≈ 39.1 µM). For the same compound, the MIC in assay [7] is 16 µg/mL (≈ 78.2 µM); in [8] it was 8 µg/mL (≈ 39.1 µM); in [9] it was 16 µg/mL (≈ 78.2 µM).
Regarding `N#Cc1c(Cl)c(Cl)c2cccnc2c1O` [Compound 7, 5,6-dichloro-7-cyano-8-hydroxyquinoline], the MIC is 4 µg/mL (≈ 16.7 µM) in [1]; 0.5 µg/mL (≈ 2.09 µM) in assay [2]; greater than 64 µg/mL in [3]; greater than 64 µg/mL in assay [4]; 2 µg/mL (≈ 8.37 µM) in [5]; 1 µg/mL (≈ 4.18 µM) in assay [6]. The MIC is 32 µg/mL (≈ 134 µM) in assay [7], 0.5 µg/mL (≈ 2.09 µM) in assay [8] and 32 µg/mL (≈ 134 µM) in assay [9].
In the case of `Cc1cc(C#N)c(O)c2ncccc12` [Compound A, reference compound], the MIC in assay [1] was 4 µg/mL (≈ 21.7 µM); in [2] it was 4 µg/mL (≈ 21.7 µM); in assay [3], 16 µg/mL (≈ 86.9 µM); in [4], 8 µg/mL (≈ 43.4 µM); in assay [5], 4 µg/mL (≈ 21.7 µM); in [6] it was 4 µg/mL (≈ 21.7 µM). Besides, the MIC turned out to be 8 µg/mL (≈ 43.4 µM) in [7], 4 µg/mL (≈ 21.7 µM) in assay [8] and 8 µg/mL (≈ 43.4 µM) in assay [9].
Consider `Cc1ccnc2c(O)c(C#N)ccc12` [Compound 3, 4-methyl-7-cyano-8-hydroxyquinoline], for which the MIC in [1] amounted to 8 µg/mL (≈ 43.4 µM); in assay [2] it was 8 µg/mL (≈ 43.4 µM); in [3] it was 16 µg/mL (≈ 86.9 µM); in assay [4], 16 µg/mL (≈ 86.9 µM); in [5], 8 µg/mL (≈ 43.4 µM); in assay [6] it was 8 µg/mL (≈ 43.4 µM). Besides, the MIC in assay [7], in assay [8] and in assay [9] was 8 µg/mL (≈ 43.4 µM) in each case.
For `N#Cc1cc(C(=O)O)c2cccnc2c1O` [Compound 8, 7-cyano-8-hydroxyquinoline-5-carboxylic acid], the MIC in [1], in assay [2], in [3], in [4], in assay [5] and in assay [6] was greater than 64 µg/mL throughout. Besides, the MIC in [7], in assay [8] and in [9] was greater than 64 µg/mL in each case.
